# Experimental data from US7652020B2, “Compounds for the treatment of inflammatory disorders” (Schering Corporation, priority 2004, dated 2010).
# Target: T1, purified catalytic domain of recombinant human TACE (rhTACEc) (Homo sapiens, UniProt P78536, N452Q/S266A)
# T1 construct: Residue 215 to 477 with two mutation (S266A and N452Q) and a 6×His tail; 6xHis (C); made in house; host or cells: baculovirus/Hi5 insect cells
# Test: TACE kinetic assay: cleavage of internally quenched peptide substrate SPDL-3, fluorescence
# Type: biochemical
# Settings: TACE inhibitory activity, class symbols; read-out: Ki
# Method: TACE activity is determined by a kinetic assay measuring the rate of increase in fluorescent intensity generated by TACE catalyzed cleavage of an internally quenched peptide substrate (SPDL-3). […] It is purified from the baculovirus/Hi5 cells expression system using affinity chromatography. […] MCA is (7-Methoxycoumarin-4-yl)acetyl. Dpa is N-3-(2,4-Dinitrophenyl)-L-2,3-diaminopropionyl.
# A 50 μl assay mixture contains 20 mM HEPES, pH 7.3, 5 mM CaCl2, 100 μM ZnCl2, 2% DMSO, 0.04% Methylcellulose, 30 μM SPDL-3, 70 pM rhTACEc and a test compound. RhTACEc is pre-incubated with the testing compound for 90 min. at 25° C. Reaction is started by addition of the substrate. […] Rate of enzymatic reaction is shown as Units per second. Effect of a test compound is shown as % of TACE activity in the absence of the compound.
# T1 sequence (P78536 215-477 S266A/N452Q): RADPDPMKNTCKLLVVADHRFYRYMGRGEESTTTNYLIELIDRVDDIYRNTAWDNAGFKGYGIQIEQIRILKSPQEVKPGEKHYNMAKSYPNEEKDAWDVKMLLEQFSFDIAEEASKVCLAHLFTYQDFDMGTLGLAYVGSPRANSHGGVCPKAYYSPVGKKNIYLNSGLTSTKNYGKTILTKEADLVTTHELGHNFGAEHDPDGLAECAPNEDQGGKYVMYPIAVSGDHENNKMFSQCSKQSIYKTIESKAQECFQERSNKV
row,Ki,SMILES
1,20 to 100 nM,CCOC(=O)c1cccn2cc([C@H]3CCCN3C(=O)[C@H](O)[C@@H](O)C(=O)N[C@H](C)c3ccc(-n4cccn4)cc3)nc12 [Compound 2508]
2,< 20 nM,O=C(NCc1ccc(-c2ccccc2OC(F)(F)F)cn1)[C@H](O)[C@@H](O)C(=O)N1CCCC1 [Compound 2350]
3,20 to 100 nM,O=C(NCc1ccc(-c2ccc(F)cc2OCC(F)(F)F)cc1)[C@H](O)[C@@H](O)C(=O)N1CCCC1 [Compound 2337]
4,> 1000 nM,N#Cc1cc(F)ccc1N1CCC(CNC(=O)[C@H](O)[C@@H](O)c2cnccn2)CC1 [Compound 2387]
5,< 20 nM,CCNc1nnc([C@H]2c3ccccc3CN2C(=O)[C@H](O)[C@@H](O)C(=O)N[C@H](C)c2ccc(-n3cccn3)cc2)o1 (stereo in doubt) [Compound 2527]
6,20 to 100 nM,C[C@@H](NC(=O)[C@H](O)[C@@H](O)C(=O)N1CC(C)(C)C[C@]1(C)c1cccc(Cl)c1)c1ccc(-n2cccn2)cc1 [Compound 2240]
7,20 to 100 nM,C[C@@H](NC(=O)[C@H](O)[C@@H](O)C(=O)N1CCCCC1c1csc(N)n1)c1ccc(-n2cccn2)cc1 (stereo partly shown) [Compound 2417]
8,20 to 100 nM,C[C@@H](NC(=O)[C@H](O)[C@@H](O)C(=O)N1CCC[C@@H]1c1csc(N2CCCCC2)n1)c1ccc(-n2cccn2)cc1 [Compound 2258]
9,< 20 nM,C[C@@H](NC(=O)[C@H](O)[C@@H](O)C(=O)N1CCC[C@@H]1c1csc(N(C)S(C)(=O)=O)n1)c1ccc(-n2cccn2)cc1 [Compound 2582]
10,< 20 nM,CNc1ncc2c(n1)CN(C(=O)[C@H](O)[C@@H](O)C(=O)N[C@H](C)c1ccc(-n3cccn3)cc1)C2 [Compound 2052]
11,< 20 nM,C[C@@H](NC(=O)[C@H](O)[C@@H](O)C(=O)N1Cc2cccnc2C1)c1ccc(-n2cccn2)c(OCc2ccccc2)c1 [Compound 2304]
12,> 1000 nM,CCCN(C(=O)[C@H](O)[C@@H](O)C(=O)N[C@H](C)c1ccc(-n2cccn2)cc1)C(C)c1cccc(Cl)c1 (stereo partly shown) [Compound 2486]
13,20 to 100 nM,O=C(NCc1ccc(-c2ccccc2OCCC2CCCC2)cc1)[C@H](O)[C@@H](O)C(=O)N1CCCC1 [Compound 2339]
14,20 to 100 nM,O=C(NCc1ccc(-c2ccccc2)cc1)[C@H](O)[C@@H](O)C(=O)N1Cc2cccnc2C1 [Compound 2037]
15,< 20 nM,C[C@@H](NC(=O)[C@H](O)[C@@H](O)C(=O)N1CCC[C@@H]1c1ccn(-c2ccc(F)cc2)n1)c1ccc(-n2cccn2)cc1 [Compound 2599]
16,20 to 100 nM,CC1c2cnc(N)nc2CN1C(=O)[C@H](O)[C@@H](O)C(=O)N[C@H](C)c1ccc(-n2cccn2)cc1 (stereo partly shown) [Compound 2051]
17,100 to 1000 nM,C[C@@H](NC(=O)[C@H](O)[C@@H](O)C(=O)N1CC(C)(C)CC1(C)C)c1ccc(-n2cccn2)cc1 [Compound 2254]
18,100 to 1000 nM,C[C@@H](NC(=O)[C@H](O)[C@@H](O)C(=O)N1CC2CC1CN2c1ccc(Cl)cc1)c1ccc(-n2cccn2)cc1 (stereo partly shown) [Compound 2419]
19,100 to 1000 nM,C[C@@H](NC(=O)[C@H](O)[C@@H](O)C(=O)N1C2CCC1CC2)c1ccc(-n2cccn2)cc1 [Compound 2095]
20,< 20 nM,CC#CCOc1cc([C@@H](C)NC(=O)[C@H](O)[C@@H](O)C(=O)N2CC=CC2c2cccc(Cl)c2)ccc1-n1cccn1 (stereo partly shown) [Compound 2572]
21,> 1000 nM,N#Cc1ccccc1N1CCC2(CC1)CC2NC(=O)[C@H](O)[C@@H](O)C(=O)N1CCC[C@@H]1c1ccccc1 (stereo partly shown) [Compound 2152]

row,Ki,SMILES
1,> 1000 nM,C[C@@H](NC(=O)[C@H](O)[C@@H](O)C(=O)N1Cc2cccnc2C1)c1cccc(O)c1 [Compound 2307]
2,> 1000 nM,C[C@@H](NC(=O)[C@](C)(O)[C@@H](O)C(=O)N1CCCCC1c1ccccc1)c1ccc(-n2cccn2)cc1 (stereo partly shown) [Compound 2411]
3,20 to 100 nM,C[C@@H](NC(=O)[C@H](O)[C@@H](O)C(=O)N1CCc2cn[nH]c2C1)c1ccc(-n2cccn2)cc1 [Compound 2076]
4,< 20 nM,C[C@@H](NC(=O)[C@H](O)[C@@H](O)C(=O)N1Cc2cccnc2C1)c1ccc(-n2cccn2)c(O)c1 [Compound 2305]
5,100 to 1000 nM,CCN(C(=O)[C@H](O)[C@@H](O)C(=O)N[C@H](C)c1ccc(-n2cccn2)cc1)C(C)c1cccc(Cl)c1 (stereo partly shown) [Compound 2481]
6,100 to 1000 nM,C[C@@H](NC(=O)[C@H](O)[C@@H](O)C(=O)N1CCN(c2ccccc2)C(=O)C1)c1ccc(-n2cccn2)cc1 [Compound 2425]
7,20 to 100 nM,CO[C@@H](C(=O)NCc1ccc(-c2ccc(F)cc2OCCC(C)(C)C)cc1)[C@@H](O)C(=O)N1Cc2cccnc2C1 [Compound 2475]
8,< 20 nM,CCOc1cc(F)ccc1-c1ccc(CNC(=O)[C@H](O)[C@@H](O)C(=O)N2Cc3ccncc3C2)cc1 [Compound 2042]
9,< 20 nM,C[C@@H](NC(=O)[C@H](O)[C@@H](O)C(=O)N1CCc2ccccc2[C@@H]1c1csc(N)n1)c1ccc(-n2cccn2)cc1 [Compound 2585]
10,20 to 100 nM,O=C(NCC1CCN(c2ccc(F)cc2OCC(F)(F)F)CC1)[C@H](O)[C@@H](O)C(=O)N1CCCC1 [Compound 2142]
11,< 20 nM,Cc1nc2c(s1)CN(C(=O)[C@H](O)[C@@H](O)C(=O)NCC1CCN(c3ccccc3C#N)CC1C)C2 (stereo partly shown) [Compound 2151]
12,< 20 nM,C[C@@H](NC(=O)[C@H](O)[C@@H](O)C(=O)N1CCC[C@@H]1c1cn2ccccc2n1)c1ccc(-n2cccn2)cc1 [Compound 2507]
13,< 20 nM,Cc1nc([C@H]2CCCN2C(=O)[C@H](O)[C@@H](O)C(=O)N[C@H](C)c2ccc(-n3cccn3)cc2)cs1 [Compound 2591]
14,< 20 nM,CC1(C)c2ccccc2CN1C(=O)[C@H](O)[C@@H](O)C(=O)NCC1CCN(c2ccccc2C#N)CC1 [Compound 2233]
15,< 20 nM,COc1cc2c(cc1OC)C(c1ccccc1)N(C(=O)[C@H](O)[C@@H](O)C(=O)N[C@H](C)c1ccc(-n3cccn3)cc1)CC2 (stereo partly shown) [Compound 2442]
16,100 to 1000 nM,C[C@@H](NC(=O)[C@H](O)[C@@H](O)C(=O)N1CCCc2ccccc21)c1ccc(-n2cccn2)cc1 [Compound 2421]
17,100 to 1000 nM,C[C@@H](NC(=O)[C@](C)(O)[C@@H](O)C(=O)N1Cc2cccnc2C1)c1ccc(-c2cccc(OCCC3CCCCC3)c2)cc1 [Compound 2353A]
18,20 to 100 nM,Cc1cccc2c1CN(C(=O)[C@H](O)[C@@](C)(O)C(=O)N[C@H](C)c1ccc(-n3cccn3)cc1)C2 [Compound 2446]
19,< 20 nM,CC(C)Nc1nc([C@@H]2c3ccccc3CN2C(=O)[C@H](O)[C@@H](O)C(=O)N[C@H](C)c2ccc(-n3cccn3)cc2)cs1 [Compound 2593]
20,> 1000 nM,N#Cc1cc(F)ccc1N1CCC(CNC(=O)[C@H](N)[C@@H](O)C(=O)N2CCCC2)CC1 [Compound 2460]
21,< 20 nM,CC(C)Nc1nc([C@@H]2c3ccc(Cl)cc3CCN2C(=O)[C@H](O)[C@@H](O)C(=O)N[C@H](C)c2ccc(-n3cccn3)cc2)cs1 [Compound 2590]

# Same assay, conditions: TACE, representative compounds, numeric values; read-out: Ki
row,Ki,SMILES
1,1.4 nM,CNc1nc([C@H]2c3ccccc3CCN2C(=O)[C@H](O)[C@@H](O)C(=O)N[C@H](C)c2ccc(-n3cccn3)cc2)cs1 [drawing 1310]
2,0.25 nM,CC#CCOc1cc([C@@H](C)NC(=O)[C@H](O)[C@@H](O)C(=O)N2Cc3cccnc3C2)ccc1-n1cccn1 [drawing 1292]
3,0.85 nM,CC#CCOc1cc([C@@H](C)NC(=O)[C@H](O)[C@@H](O)C(=O)N2CCC[C@@H]2c2cccc(Cl)c2)ccc1-n1cccn1 [drawing 1305]
4,0.5 nM,CNc1nc([C@H]2c3ccccc3CN2C(=O)[C@H](O)[C@@H](O)C(=O)N[C@H](C)c2ccc(-n3cccn3)cc2)cs1
